From PubChem BioAssay (NCI)
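Compound exposure: 48 hours, 5 concentrations, 96-well plates. The concentration for full growth arrest is given as TGI.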

What was measured:
Test in all cases: NCI anticancer screen, dose series, 48 h
786-0 renal = tested on: 786-0 renal
A498 renal = tested on: A498 renal
A549 NSCLC = tested on: A549 NSCLC
ACHN renal = tested on: ACHN renal
CAKI-1 renal = tested on: CAKI-1 renal
CCRF-CEM leukemia = tested on: CCRF-CEM leukemia
COLO 205 colon = tested on: COLO 205 colon
DU-145 prostate = tested on: DU-145 prostate
EKVX NSCLC = tested on: EKVX NSCLC
HCC-2998 colon = tested on: HCC-2998 colon
HCT-116 colon = tested on: HCT-116 colon
HCT-15 colon = tested on: HCT-15 colon
HOP-62 NSCLC = tested on: HOP-62 NSCLC
HS 578T breast = tested on: HS 578T breast
HT29 colon = tested on: HT29 colon
IGROV1 ovarian = tested on: IGROV1 ovarian
K-562 leukemia = tested on: K-562 leukemia
KM12 colon = tested on: KM12 colon
LOX IMVI melanoma = tested on: LOX IMVI melanoma
M14 melanoma = tested on: M14 melanoma
MALME-3M melanoma = tested on: MALME-3M melanoma
MCF7 breast = tested on: MCF7 breast
MDA-MB-231 breast = tested on: MDA-MB-231 breast
MDA-MB-435 = tested on: MDA-MB-435
MDA-N = tested on: MDA-N
MOLT-4 leukemia = tested on: MOLT-4 leukemia
NCI-H226 lung = tested on: NCI-H226 lung
NCI-H460 lung = tested on: NCI-H460 lung
NCI-H522 lung = tested on: NCI-H522 lung
NCI/ADR-RES ovarian = tested on: NCI/ADR-RES ovarian
OVCAR-3 ovarian = tested on: OVCAR-3 ovarian
OVCAR-4 ovarian = tested on: OVCAR-4 ovarian
OVCAR-5 ovarian = tested on: OVCAR-5 ovarian
OVCAR-8 ovarian = tested on: OVCAR-8 ovarian
PC-3 prostate = tested on: PC-3 prostate
RPMI-8226 leukemia = tested on: RPMI-8226 leukemia
RXF 393 renal = tested on: RXF 393 renal
SF-268 CNS = tested on: SF-268 CNS
SF-295 CNS = tested on: SF-295 CNS
SF-539 CNS = tested on: SF-539 CNS
SK-MEL-2 melanoma = tested on: SK-MEL-2 melanoma
SK-MEL-28 melanoma = tested on: SK-MEL-28 melanoma
SK-MEL-5 melanoma = tested on: SK-MEL-5 melanoma
SK-OV-3 ovarian = tested on: SK-OV-3 ovarian
SN12C renal = tested on: SN12C renal
SNB-19 CNS = tested on: SNB-19 CNS
SNB-75 CNS = tested on: SNB-75 CNS
SW-620 colon = tested on: SW-620 colon
T-47D breast = tested on: T-47D breast
TK-10 renal = tested on: TK-10 renal
U251 CNS = tested on: U251 CNS
UACC-257 melanoma = tested on: UACC-257 melanoma
UACC-62 melanoma = tested on: UACC-62 melanoma
UO-31 renal = tested on: UO-31 renal
BT-549 breast = tested on: BT-549 breast
HL-60(TB) leukemia = tested on: HL-60(TB) leukemia
HOP-92 NSCLC = tested on: HOP-92 NSCLC
NCI-H23 lung = tested on: NCI-H23 lung

Measured: TGI

CSc1nc2c(N)ncnc2n1C
not listed: BT-549 breast | HL-60(TB) leukemia | HOP-92 NSCLC | NCI-H23 lung
> 100 µM: all other assays above

Cc1ccc2[nH]c3[nH]c(=O)[nH]c(=O)c3c2c1
not listed: HCC-2998 colon | MDA-MB-231 breast | NCI-H460 lung | OVCAR-4 ovarian | PC-3 prostate | SK-MEL-28 melanoma | U251 CNS
> 100 µM: all other assays above
